Experimental data reported in the supplement of paper PMC13380429.

Columns and labels:
Conditions in all cases: 72 h
[1] = system: U2OS; assay: cell viability relative to DMSO; higher = less toxic
[2] = system: Vero E6; assay: as above
[3] = system: Calu-3; assay: as above
[4] = system: Caco-2; assay: as above
[5] = system: HepG2; assay: as above
[6] = system: U2OS; assay: drug sensitivity score (DSS) for viability; higher = more toxic; extreme values may be limits of the assay
[7] = system: Vero E6; assay: as above
[8] = system: Calu-3; assay: as above
[9] = system: Caco-2; assay: as above
[10] = system: HepG2; assay: as above
[11] = system: U2OS; assay: relative viability EC50 (midpoint between 100% and the lowest measured viability); higher = less toxic
[12] = system: Vero E6; assay: as above
[13] = system: Calu-3; assay: as above
[14] = system: Caco-2; assay: as above
[15] = system: HepG2; assay: as above

| SMILES | cell viability ([1]; 1 nM) | cell viability ([1]; 10 nM) | cell viability ([1]; 100 nM) | cell viability ([1]; 1000 nM) | cell viability ([1]; 10000 nM) | cell viability ([2]; 1 nM) | cell viability ([2]; 10 nM) | cell viability ([2]; 100 nM) | cell viability ([2]; 1000 nM) | cell viability ([2]; 10000 nM) | cell viability ([3]; 1 nM) | cell viability ([3]; 10 nM) | cell viability ([3]; 100 nM) | cell viability ([3]; 1000 nM) | cell viability ([3]; 10000 nM) | cell viability ([4]; 1 nM) | cell viability ([4]; 10 nM) | cell viability ([4]; 100 nM) | cell viability ([4]; 1000 nM) | cell viability ([4]; 10000 nM) | cell viability ([5]; 1 nM) | cell viability ([5]; 10 nM) | cell viability ([5]; 100 nM) | cell viability ([5]; 1000 nM) | cell viability ([5]; 10000 nM) | drug sensitivity score [6] | drug sensitivity score [7] | drug sensitivity score [8] | drug sensitivity score [9] | drug sensitivity score [10] | relative viability EC50 [11] | relative viability EC50 [12] | relative viability EC50 [13] | relative viability EC50 [14] | relative viability EC50 [15] |
| --- | --- | --- | --- | --- | --- | --- | --- | --- | --- | --- | --- | --- | --- | --- | --- | --- | --- | --- | --- | --- | --- | --- | --- | --- | --- | --- | --- | --- | --- | --- | --- | --- | --- | --- | --- |
| CCCCC(CC)CCC(CC(C)C)OS(=O)(=O)O (stereo not given) [sodium-tetradecyl-sulfate] | 103% | 96% | 98.3% | 104% | 99.5% | 101% | 96.1% | 99.7% | 91% | 101% | 98.8% | 91.9% | 103% | 102% | 97.5% | 100% | 83% | 95.5% | 87.6% | 104% | 93.1% | 96.5% | 112% | 86.2% | 98.6% | 0 | 0 | 0 | 0 | 0 | > 10 µM | > 10 µM | > 10 µM | > 10 µM | > 10 µM |
| CC(C)(N)CC12CC3CC(CC(C3)C1)C2 [somantadine] | 100% | 95.5% | 99.5% | 91.7% | 92.4% | 97.1% | 98.3% | 100% | 100% | 96.1% | 100% | 99.8% | 99.1% | 94.3% | 96.8% | 100% | 95.9% | 104% | 96.2% | 93.4% | 100% | 101% | 95.5% | 84.8% | 87.4% | 0 | 0 | 0 | 0 | 1.9 | > 10 µM | > 10 µM | > 10 µM | > 10 µM | > 10 µM |
| CCCCCCCCCCCCC/C=C/[C@@H](O)[C@@H](N)CO[P@](=O)(O)OCC[N+](C)(C)C [sphingosylphosphorylcholine] | 94% | 97% | 101% | 95.7% | 100% | 99.4% | 103% | 94.1% | 105% | 109% | 94.2% | 106% | 87.7% | 97.5% | 107% | 91% | 90.4% | 102% | 101% | 102% | 86% | 98.8% | 88.5% | 102% | 104% | 0 | 0 | 0 | 0 | 0 | > 10 µM | > 10 µM | > 10 µM | > 10 µM | > 10 µM |
| Cc1ccc2c(c1)[C@H]1CN(C)CC[C@H]1N2 [stobadine] | 100% | 98.7% | 101% | 99.6% | 101% | 101% | 102% | 99.7% | 103% | 94.1% | 97.2% | 116% | 93% | 94.5% | 102% | 96.5% | 91.9% | 92.2% | 96% | 95.8% | 107% | 110% | 97.2% | 97.4% | 95.8% | 0 | 0 | 0 | 0 | 0 | > 10 µM | > 10 µM | > 10 µM | > 10 µM | > 10 µM |
| C[C@H](CCC(=O)NCCS(=O)(=O)O)[C@H]1CC[C@H]2[C@@H]3[C@H](O)C[C@@H]4C[C@H](O)CC[C@]4(C)[C@H]3C[C@H](O)[C@]12C [taurocholate] | 100% | 98.9% | 101% | 98.9% | 99.2% | 104% | 106% | 107% | 110% | 95% | 103% | 99% | 109% | 102% | 96.3% | 110% | 86.9% | 104% | 87.2% | 92.2% | 105% | 74% | 99.8% | 108% | 98.4% | 0 | 0 | 0 | 0 | 0 | > 10 µM | > 10 µM | > 10 µM | > 10 µM | > 10 µM |
| O=S1(=O)CCN(CN2CCS(=O)(=O)NC2)CN1 [taurolidine] | 97.3% | 98.3% | 95.8% | 103% | 98.7% | 114% | 99.7% | 101% | 97.5% | 99.4% | 99.8% | 95.2% | 97.6% | 92.7% | 94.4% | 102% | 118% | 104% | 96.6% | 87.9% | 106% | 89.8% | 104% | 99.2% | 97.2% | 0 | 0 | 0 | 0.2 | 0 | > 10 µM | > 10 µM | > 10 µM | > 10 µM | > 10 µM |
| C[N+]1(C)[C@@H]2C[C@@H](OC(=O)C(O)(c3cccs3)c3cccs3)C[C@H]1[C@@H]1O[C@@H]12 [tiotropium] | 93.4% | 94% | 95.3% | 96.8% | 108% | 103% | 98.6% | 101% | 95.9% | 102% | 102% | 98.7% | 96.4% | 95.2% | 108% | 105% | 100% | 101% | 99.5% | 104% | 102% | 93.9% | 98.8% | 99.4% | 104% | 0 | 0 | 0 | 0 | 0 | > 10 µM | > 10 µM | > 10 µM | > 10 µM | > 10 µM |
| COc1ccc(/C=C/C(=O)O)cc1 [trans-4-methoxycinnamic-acid] | 101% | 96.3% | 102% | 98.6% | 97.5% | 99.3% | 102% | 98.1% | 103% | 97.7% | 103% | 92.2% | 108% | 98% | 98.8% | 95.1% | 99.6% | 88.7% | 100% | 88.3% | 106% | 92% | 100% | 91.7% | 96.3% | 0 | 0 | 0 | 0 | 0 | > 10 µM | > 10 µM | > 10 µM | > 10 µM | > 10 µM |
| O=C(O[C@H]1C[C@H]2CC[C@@H](C1)[N+]21CCCC1)C(O)(c1ccccc1)c1ccccc1 [trospium] | 95.7% | 97.5% | 101% | 99.1% | 88.9% | 95.6% | 99.5% | 93% | 95.3% | 102% | 101% | 101% | 97.2% | 98.2% | 94.3% | 92.8% | 97.1% | 94.7% | 98.3% | 99.9% | 98.3% | 93.8% | 107% | 94.8% | 108% | 0 | 0 | 0 | 0 | 0 | > 10 µM | > 10 µM | > 10 µM | > 10 µM | > 10 µM |
| O=c1cc[nH]c(=O)[nH]1 [uracil] | 91.7% | 98.7% | 94.8% | 102% | 103% | 96.2% | 88.4% | 91.8% | 89.5% | 112% | 91.8% | 95.2% | 93% | 94.6% | 95.6% | 91.5% | 90.6% | 91.3% | 93.8% | 98.5% | 98.6% | 94% | 99.6% | 102% | 117% | 0 | 0 | 0 | 0 | 0 | > 10 µM | > 10 µM | > 10 µM | > 10 µM | > 10 µM |
| CC[C@]12CCCN3CCc4c(n(c5ccccc45)C(=O)C1)[C@@H]32 [vinburnine] | 94.2% | 97.4% | 96.7% | 95.6% | 79.3% | 103% | 96.6% | 100% | 96.9% | 86.2% | 96.8% | 97.4% | 93.7% | 97.7% | 88.8% | 94.4% | 98.5% | 106% | 114% | 78.6% | 93.6% | 89.9% | 102% | 78.7% | 32.2% | 1.2 | 0.4 | 0 | 0.4 | 6.8 | > 10 µM | > 10 µM | > 10 µM | > 10 µM | 1.37 µM |
| C[C@@H](c1ncncc1F)[C@](O)(Cn1cncn1)c1ccc(F)cc1F [voriconazole] | 103% | 101% | 97.6% | 97.4% | 109% | 98.8% | 101% | 97.8% | 108% | 105% | 92.4% | 97.5% | 92.4% | 99.8% | 110% | 101% | 92.5% | 102% | 85.6% | 110% | 100% | 106% | 86.9% | 107% | 122% | 0 | 0 | 0 | 0 | 0 | > 10 µM | > 10 µM | > 10 µM | > 10 µM | > 10 µM |
| O=C[C@H](O)[C@@H](O)[C@H](O)CO [xylose] | 95.1% | 95.3% | 94.5% | 96.4% | 96.3% | 96.7% | 96.1% | 99.4% | 94.3% | 92.6% | 104% | 93% | 98.4% | 97.9% | 85.4% | 94% | 94.3% | 94.2% | 90.4% | 92.7% | 106% | 101% | 101% | 98% | 96.8% | 0 | 0 | 0.3 | 0 | 0 | > 10 µM | > 10 µM | > 10 µM | > 10 µM | > 10 µM |
| N=C(N)NC(=O)c1cnn(-c2cccc3ncccc23)c1C1CC1 [zoniporide] | 98.8% | 101% | 104% | 100% | 98.6% | 92.7% | 102% | 94.9% | 97.5% | 104% | 99.8% | 95.1% | 93.8% | 94.5% | 99.6% | 89.6% | 91.8% | 101% | 102% | 95% | 89.9% | 99.2% | 105% | 103% | 101% | 0 | 0 | 0 | 0 | 0 | > 10 µM | > 10 µM | > 10 µM | > 10 µM | > 10 µM |
